Results taken from ChEMBL document CHEMBL1795227, “Methanesulfonamido-cyclohexylamine derivatives of 2,4-diaminopyrimidine as potent ALK inhibitors” (Bioorg Med Chem Lett, 2011).
pIC50: −log10 of the molar value.

What was measured:
[1] = target: Aurora kinase C (Homo sapiens) (UniProt Q9UQB9); experiment: Inhibition of AURKC at 1 uM
[2] = target: RAC-alpha serine/threonine-protein kinase (Homo sapiens) (UniProt P31749); experiment: Inhibition of AKT1 at 1 uM
[3] = target: Ephrin type-A receptor 2 (Homo sapiens) (UniProt P29317); experiment: Inhibition of EPHA2 at 1 uM
[4] = target: RAC-beta serine/threonine-protein kinase (Homo sapiens) (UniProt P31751); experiment: Inhibition of AKT2 at 1 uM
[5] = target: Non-receptor tyrosine-protein kinase TYK2 (Homo sapiens) (UniProt P29597); experiment: Inhibition of TYK2 domain 2 at 1 uM
[6] = target: Serine/threonine-protein kinase pim-1 (Homo sapiens) (UniProt P11309); experiment: Inhibition of PIM1 at 1 uM
[7] = target: Tyrosine-protein kinase BTK (Homo sapiens) (UniProt Q06187); experiment: Inhibition of BTK at 1 uM
[8] = target: Receptor tyrosine-protein kinase erbB-2 (Homo sapiens) (UniProt P04626); experiment: Inhibition of ERBB2 at 1 uM
[9] = target: Tyrosine-protein kinase ITK/TSK (Homo sapiens) (UniProt Q08881); experiment: Inhibition of ITK at 1 uM
[10] = target: Mitogen-activated protein kinase 12 (Homo sapiens) (UniProt P53778); experiment: Inhibition of p38 gamma at 1 uM
Mitogen-activated protein kinase 12 (Homo sapiens), sequence (P53778 whole entry): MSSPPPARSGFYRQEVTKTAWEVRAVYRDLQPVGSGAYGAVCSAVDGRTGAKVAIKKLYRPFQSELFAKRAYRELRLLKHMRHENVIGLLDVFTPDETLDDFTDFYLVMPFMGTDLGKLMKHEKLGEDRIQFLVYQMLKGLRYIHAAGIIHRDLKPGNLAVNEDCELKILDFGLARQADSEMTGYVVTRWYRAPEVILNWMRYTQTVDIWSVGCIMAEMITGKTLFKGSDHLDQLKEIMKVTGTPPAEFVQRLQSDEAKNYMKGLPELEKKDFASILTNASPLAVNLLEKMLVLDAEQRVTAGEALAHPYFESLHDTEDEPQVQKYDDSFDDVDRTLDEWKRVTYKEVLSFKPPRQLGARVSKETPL

[11] = target: Insulin-like growth factor 1 receptor (Homo sapiens) (UniProt P08069); experiment: Inhibition of IGF1R at 1 uM
[12] = target: Serine/threonine-protein kinase PAK 4 (Homo sapiens) (UniProt O96013); experiment: Inhibition of PAK4 at 1 uM
[13] = target: Aurora kinase B (Homo sapiens) (UniProt Q96GD4); experiment: Inhibition of AURKB at 1 uM
Aurora kinase B (Homo sapiens), sequence (Q96GD4 whole entry): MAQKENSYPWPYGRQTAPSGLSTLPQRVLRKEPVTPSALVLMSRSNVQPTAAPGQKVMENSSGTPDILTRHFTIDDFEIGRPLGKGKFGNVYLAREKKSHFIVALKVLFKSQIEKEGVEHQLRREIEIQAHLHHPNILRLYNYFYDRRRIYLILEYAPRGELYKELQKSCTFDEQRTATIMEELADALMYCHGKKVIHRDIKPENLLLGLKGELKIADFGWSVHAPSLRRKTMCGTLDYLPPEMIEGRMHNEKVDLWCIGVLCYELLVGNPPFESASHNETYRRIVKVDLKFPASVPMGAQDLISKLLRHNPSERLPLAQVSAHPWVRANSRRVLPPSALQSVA

[14] = target: Tyrosine-protein kinase ZAP-70 (Homo sapiens) (UniProt P43403); experiment: Inhibition of ZAP70 at 1 uM
[15] = target: Glycogen synthase kinase-3 alpha (Homo sapiens) (UniProt P49840); experiment: Inhibition of GSK3A at 1 uM
[16] = target: Receptor-type tyrosine-protein kinase FLT3 (Homo sapiens) (UniProt P36888); experiment: Inhibition of FLT3 at 1 uM
[17] = target: Tyrosine-protein kinase Lck (Homo sapiens) (UniProt P06239); experiment: Inhibition of LCK at 1 uM
[18] = target: RAC-gamma serine/threonine-protein kinase (Homo sapiens) (UniProt Q9Y243); experiment: Inhibition of AKT3 at 1 uM
[19] = target: Hepatocyte growth factor receptor (Homo sapiens) (UniProt P08581); experiment: Inhibition of MET at 1 uM
[20] = target: Mitogen-activated protein kinase 1 (Homo sapiens) (UniProt P28482); experiment: Inhibition of ERK2 at 1 uM
[21] = target: T1, ALK tyrosine kinase receptor (Homo sapiens, UniProt Q9UM73); experiment: Inhibition of autophosphorylation of NPM-ALK in human Karpas-299 cells; assay type: cell-based
T1 sequence (Q9UM73 19-1620 limits assumed): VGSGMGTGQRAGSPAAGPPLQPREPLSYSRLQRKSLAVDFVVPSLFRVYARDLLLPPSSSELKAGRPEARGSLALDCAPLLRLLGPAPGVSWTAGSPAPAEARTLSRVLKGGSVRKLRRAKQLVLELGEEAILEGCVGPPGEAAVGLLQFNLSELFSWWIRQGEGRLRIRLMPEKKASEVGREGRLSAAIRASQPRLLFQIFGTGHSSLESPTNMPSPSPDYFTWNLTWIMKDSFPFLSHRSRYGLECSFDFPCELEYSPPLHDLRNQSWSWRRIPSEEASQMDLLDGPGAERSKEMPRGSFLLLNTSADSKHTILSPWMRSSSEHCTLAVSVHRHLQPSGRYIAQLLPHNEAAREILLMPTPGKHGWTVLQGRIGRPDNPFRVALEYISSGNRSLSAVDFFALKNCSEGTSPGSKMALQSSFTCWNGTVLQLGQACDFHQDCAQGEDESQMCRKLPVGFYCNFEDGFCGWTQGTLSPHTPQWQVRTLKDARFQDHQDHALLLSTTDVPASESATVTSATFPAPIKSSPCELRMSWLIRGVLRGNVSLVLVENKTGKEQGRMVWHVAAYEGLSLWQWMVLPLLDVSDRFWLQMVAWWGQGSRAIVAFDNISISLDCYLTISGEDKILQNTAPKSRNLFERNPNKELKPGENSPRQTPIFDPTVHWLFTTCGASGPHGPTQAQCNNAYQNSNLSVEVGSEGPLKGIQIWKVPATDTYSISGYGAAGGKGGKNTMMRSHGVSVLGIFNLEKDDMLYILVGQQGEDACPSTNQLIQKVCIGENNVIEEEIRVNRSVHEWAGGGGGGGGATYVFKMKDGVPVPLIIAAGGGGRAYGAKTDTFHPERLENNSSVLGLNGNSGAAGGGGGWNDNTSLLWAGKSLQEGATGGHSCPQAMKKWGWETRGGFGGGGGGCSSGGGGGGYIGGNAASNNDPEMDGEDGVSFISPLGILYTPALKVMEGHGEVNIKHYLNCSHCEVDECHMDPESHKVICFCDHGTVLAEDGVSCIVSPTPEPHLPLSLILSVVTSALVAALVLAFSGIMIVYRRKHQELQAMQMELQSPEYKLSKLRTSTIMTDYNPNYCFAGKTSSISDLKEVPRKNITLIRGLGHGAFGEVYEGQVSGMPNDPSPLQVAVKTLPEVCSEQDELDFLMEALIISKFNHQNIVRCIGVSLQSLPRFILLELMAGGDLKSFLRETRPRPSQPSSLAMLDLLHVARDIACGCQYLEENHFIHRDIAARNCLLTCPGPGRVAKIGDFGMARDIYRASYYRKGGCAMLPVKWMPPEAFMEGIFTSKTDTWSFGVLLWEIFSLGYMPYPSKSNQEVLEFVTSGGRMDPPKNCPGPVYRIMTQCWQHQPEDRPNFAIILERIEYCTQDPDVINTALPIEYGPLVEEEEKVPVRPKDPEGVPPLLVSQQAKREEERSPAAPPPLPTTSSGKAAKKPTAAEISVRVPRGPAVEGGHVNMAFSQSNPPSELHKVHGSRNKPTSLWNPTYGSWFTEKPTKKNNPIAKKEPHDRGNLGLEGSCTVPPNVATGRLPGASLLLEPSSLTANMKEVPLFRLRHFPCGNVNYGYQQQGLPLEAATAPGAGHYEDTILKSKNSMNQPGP

[22] = target: Serine/threonine-protein kinase STK11 (Homo sapiens) (UniProt Q15831); experiment: Inhibition of LKB1 at 1 uM
[23] = target: Cyclin-dependent kinase 2 (Homo sapiens) (UniProt P24941); experiment: Inhibition of CDK2 at 1 uM
[24] = target: Platelet-derived growth factor receptor alpha (Homo sapiens) (UniProt P16234); experiment: Inhibition of PDGFRalpha at 1 uM
[25] = target: Fibroblast growth factor receptor 1 (Homo sapiens) (UniProt P11362); experiment: Inhibition of FGFR1 at 1 uM
[26] = target: TGF-beta receptor type-1 (Homo sapiens) (UniProt P36897); experiment: Inhibition of TGFBR1 at 1 uM
[27] = target: Mitogen-activated protein kinase 10 (Homo sapiens) (UniProt P53779); experiment: Inhibition of JNK3 at 1 uM
[28] = target: Tyrosine-protein kinase SYK (Homo sapiens) (UniProt P43405); experiment: Inhibition of SYK at 1 uM
[29] = target: Fibroblast growth factor receptor 2 (Homo sapiens) (UniProt P21802); experiment: Inhibition of FGFR2 at 1 uM
[30] = target: Mitogen-activated protein kinase 14 (Homo sapiens) (UniProt Q16539); experiment: Inhibition of p38 alpha at 1 uM
[31] = target: Serine/threonine-protein kinase PLK1 (Homo sapiens) (UniProt P53350); experiment: Inhibition of PLK1 at 1 uM
[32] = target: T1, ALK tyrosine kinase receptor; settings: 1 uM
Description: Inhibition of ALK at 1 uM

[33] = target: Vascular endothelial growth factor receptor 2 (Homo sapiens) (UniProt P35968); experiment: Inhibition of VEGFR2 at 1 uM
[34] = target: Insulin receptor (Homo sapiens, UniProt P06213); experiment: Inhibition of INSR at 1 uM
Insulin receptor, sequence (P06213 28-758 limits assumed): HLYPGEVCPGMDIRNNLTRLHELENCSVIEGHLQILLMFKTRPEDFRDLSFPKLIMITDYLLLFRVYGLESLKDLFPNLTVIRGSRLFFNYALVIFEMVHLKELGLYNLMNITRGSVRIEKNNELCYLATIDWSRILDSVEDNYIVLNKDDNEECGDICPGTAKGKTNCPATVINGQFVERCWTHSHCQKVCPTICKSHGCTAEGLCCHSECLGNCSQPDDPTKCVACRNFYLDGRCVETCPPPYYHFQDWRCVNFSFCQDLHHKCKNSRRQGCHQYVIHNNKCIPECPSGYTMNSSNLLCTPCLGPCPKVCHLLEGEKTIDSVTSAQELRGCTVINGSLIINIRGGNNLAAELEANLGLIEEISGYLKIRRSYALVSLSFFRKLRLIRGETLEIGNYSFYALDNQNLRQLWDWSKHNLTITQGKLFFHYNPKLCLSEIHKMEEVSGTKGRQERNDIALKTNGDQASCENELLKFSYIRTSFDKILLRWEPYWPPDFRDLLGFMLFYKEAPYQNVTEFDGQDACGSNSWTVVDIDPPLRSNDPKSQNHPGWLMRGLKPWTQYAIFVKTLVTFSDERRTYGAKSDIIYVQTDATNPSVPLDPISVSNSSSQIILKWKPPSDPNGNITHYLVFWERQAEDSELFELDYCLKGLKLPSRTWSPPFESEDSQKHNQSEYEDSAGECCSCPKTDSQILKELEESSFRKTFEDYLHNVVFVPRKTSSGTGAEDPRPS
Insulin receptor, sequence (P06213 763-1382 limits assumed): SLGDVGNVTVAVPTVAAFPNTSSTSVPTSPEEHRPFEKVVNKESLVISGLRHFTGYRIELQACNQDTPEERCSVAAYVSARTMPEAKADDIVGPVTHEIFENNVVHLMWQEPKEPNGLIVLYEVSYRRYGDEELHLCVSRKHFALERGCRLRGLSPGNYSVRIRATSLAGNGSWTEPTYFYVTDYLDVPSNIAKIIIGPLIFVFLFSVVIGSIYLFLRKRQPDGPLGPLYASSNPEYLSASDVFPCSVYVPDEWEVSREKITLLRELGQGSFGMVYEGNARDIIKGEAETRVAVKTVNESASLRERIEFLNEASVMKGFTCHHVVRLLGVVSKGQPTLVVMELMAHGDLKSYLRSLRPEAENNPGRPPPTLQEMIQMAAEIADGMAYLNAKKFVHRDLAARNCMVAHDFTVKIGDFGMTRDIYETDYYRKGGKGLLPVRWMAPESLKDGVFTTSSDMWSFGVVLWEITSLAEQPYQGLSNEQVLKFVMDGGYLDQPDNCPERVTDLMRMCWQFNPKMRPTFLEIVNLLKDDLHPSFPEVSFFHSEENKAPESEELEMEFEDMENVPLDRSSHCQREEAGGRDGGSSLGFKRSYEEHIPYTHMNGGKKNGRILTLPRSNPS

[35] = target: Tyrosine-protein kinase JAK2 (Homo sapiens) (UniProt O60674); experiment: Inhibition of JAK2 domain 2 at 1 uM
[36] = test system: Tyrosine-protein kinase ABL1 (Homo sapiens), P00519 [T315I]; experiment: Inhibition of ABL1 T315I at 1 uM
[37] = target: Ephrin type-A receptor 3 (Homo sapiens) (UniProt P29320); experiment: Inhibition of EPHA3 at 1 uM
[38] = target: High affinity nerve growth factor receptor (Homo sapiens) (UniProt P04629); experiment: Inhibition of TRKA at 1 uM
[39] = test system: Mast/stem cell growth factor receptor Kit (Homo sapiens), P10721 [V559D,T670I]; experiment: Inhibition of KIT V559D T670I at 1 uM
[40] = target: Platelet-derived growth factor receptor beta (Homo sapiens) (UniProt P09619); settings: 1 uM
Description: Inhibition of PDGFR beta at 1 uM

[41] = target: Macrophage colony-stimulating factor 1 receptor (Homo sapiens) (UniProt P07333); experiment: Inhibition of CSF1R at 1 uM
[42] = target: Proto-oncogene tyrosine-protein kinase Src (Homo sapiens) (UniProt P12931); experiment: Inhibition of SRC at 1 uM
Proto-oncogene tyrosine-protein kinase Src (Homo sapiens), sequence (P12931 2-536 limits assumed): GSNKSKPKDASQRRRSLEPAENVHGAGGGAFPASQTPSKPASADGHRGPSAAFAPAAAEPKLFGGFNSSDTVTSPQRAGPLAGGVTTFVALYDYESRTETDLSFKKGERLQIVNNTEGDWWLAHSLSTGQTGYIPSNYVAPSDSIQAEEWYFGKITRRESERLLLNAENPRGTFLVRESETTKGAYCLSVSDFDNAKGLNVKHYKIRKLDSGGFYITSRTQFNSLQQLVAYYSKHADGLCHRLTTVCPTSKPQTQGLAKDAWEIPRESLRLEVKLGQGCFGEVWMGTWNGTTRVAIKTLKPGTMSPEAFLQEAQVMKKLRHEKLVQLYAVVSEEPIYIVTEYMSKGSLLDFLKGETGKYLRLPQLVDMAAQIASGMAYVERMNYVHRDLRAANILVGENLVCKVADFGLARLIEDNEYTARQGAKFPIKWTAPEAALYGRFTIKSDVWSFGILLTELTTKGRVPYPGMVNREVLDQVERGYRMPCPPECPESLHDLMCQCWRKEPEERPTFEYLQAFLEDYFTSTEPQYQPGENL

[43] = target: Protein kinase C eta type (Homo sapiens) (UniProt P24723); experiment: Inhibition of PRKCH at 1 uM
[44] = target: Mast/stem cell growth factor receptor Kit (Homo sapiens) (UniProt P10721); experiment: Inhibition of KIT at 1 uM
[45] = target: Mitogen-activated protein kinase 9 (Homo sapiens) (UniProt P45984); experiment: Inhibition of JNK2 at 1 uM
[46] = target: Serine/threonine-protein kinase PAK 1 (Homo sapiens) (UniProt Q13153); experiment: Inhibition of PAK1 at 1 uM
[47] = target: Proto-oncogene tyrosine-protein kinase receptor Ret (Homo sapiens) (UniProt P07949); experiment: Inhibition of RET at 1 uM
[48] = target: Mitogen-activated protein kinase 8 (Homo sapiens) (UniProt P45983); experiment: Inhibition of JNK1 at 1 uM

RAC-alpha serine/threonine-protein kinase (Homo sapiens), sequence (P31749 whole entry): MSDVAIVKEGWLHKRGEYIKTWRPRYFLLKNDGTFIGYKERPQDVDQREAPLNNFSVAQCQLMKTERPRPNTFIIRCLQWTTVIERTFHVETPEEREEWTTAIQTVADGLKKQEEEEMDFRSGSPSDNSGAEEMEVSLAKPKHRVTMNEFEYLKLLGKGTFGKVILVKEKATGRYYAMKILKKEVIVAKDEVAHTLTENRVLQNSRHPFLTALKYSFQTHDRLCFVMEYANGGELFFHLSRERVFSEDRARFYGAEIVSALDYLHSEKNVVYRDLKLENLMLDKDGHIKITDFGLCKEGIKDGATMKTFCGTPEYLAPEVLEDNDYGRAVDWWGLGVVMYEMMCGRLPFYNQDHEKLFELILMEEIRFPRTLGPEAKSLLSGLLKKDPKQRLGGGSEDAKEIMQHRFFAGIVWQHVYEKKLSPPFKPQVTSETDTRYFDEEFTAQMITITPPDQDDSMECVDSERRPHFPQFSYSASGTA
Aurora kinase C (Homo sapiens), sequence (Q9UQB9 whole entry): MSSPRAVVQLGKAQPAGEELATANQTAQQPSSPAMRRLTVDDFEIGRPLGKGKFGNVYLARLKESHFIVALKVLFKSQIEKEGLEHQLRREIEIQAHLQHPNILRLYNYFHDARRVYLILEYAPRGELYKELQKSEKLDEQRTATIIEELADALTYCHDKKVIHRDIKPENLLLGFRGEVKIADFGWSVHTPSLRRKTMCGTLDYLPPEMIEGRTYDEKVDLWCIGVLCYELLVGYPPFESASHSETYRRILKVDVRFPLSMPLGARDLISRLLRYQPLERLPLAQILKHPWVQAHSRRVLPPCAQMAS

COCCN1CCc2cc(Nc3ncc(Cl)c(N[C@@H]4CCCC[C@H]4N(C)S(C)(=O)=O)n3)c(OC)cc2CC1
inhibition [1]: < 65% | inhibition [2]: < 65% | inhibition [3]: < 65% | inhibition [4]: < 65% | inhibition [5]: < 65% | inhibition [6]: 90% | inhibition [7]: < 65% | inhibition [8]: < 65% | inhibition [9]: < 65% | inhibition [10]: < 65% | inhibition [11]: 73% | inhibition [12]: < 65% | inhibition [13]: < 65% | inhibition [14]: < 65% | inhibition [15]: < 65% | inhibition [16]: 99% | inhibition [17]: < 65% | inhibition [18]: < 65% | inhibition [19]: < 65% | inhibition [20]: < 65% | pIC50 [21]: 7.82 | inhibition [22]: 94% | inhibition [23]: < 65% | inhibition [24]: < 65% | inhibition [25]: 100% | inhibition [26]: < 65% | inhibition [27]: 98% | inhibition [28]: < 65% | inhibition [29]: 99% | inhibition [30]: < 65% | inhibition [31]: 96% | inhibition [32]: 100% | inhibition [33]: < 65% | inhibition [34]: 70% | inhibition [35]: < 65% | inhibition [36]: < 65% | inhibition [37]: < 65% | inhibition [38]: < 65% | inhibition [39]: 92% | inhibition [40]: 100% | inhibition [41]: 98% | inhibition [42]: < 65% | inhibition [43]: 79% | inhibition [44]: 96% | inhibition [45]: < 65% | inhibition [46]: < 65% | inhibition [47]: < 65% | inhibition [48]: 97%

COCCN1CCc2cc(Nc3ncc(Cl)c(N[C@@H]4CCCC[C@H]4NS(C)(=O)=O)n3)c(OC)cc2CC1
inhibition [1]: < 65% | inhibition [2]: < 65% | inhibition [3]: < 65% | inhibition [4]: < 65% | inhibition [5]: < 65% | inhibition [6]: < 65% | inhibition [7]: < 65% | inhibition [8]: < 65% | inhibition [9]: < 65% | inhibition [10]: < 65% | inhibition [11]: < 65% | inhibition [12]: < 65% | inhibition [13]: < 65% | inhibition [14]: < 65% | inhibition [15]: < 65% | inhibition [16]: 82% | inhibition [17]: < 65% | inhibition [18]: < 65% | inhibition [19]: < 65% | inhibition [20]: < 65% | pIC50 [21]: 7.19 | inhibition [22]: < 65% | inhibition [23]: < 65% | inhibition [24]: < 65% | inhibition [25]: 86% | inhibition [26]: < 65% | inhibition [27]: < 65% | inhibition [28]: < 65% | inhibition [29]: < 65% | inhibition [30]: < 65% | inhibition [31]: 94% | inhibition [32]: 97% | inhibition [33]: < 65% | inhibition [34]: < 65% | inhibition [35]: < 65% | inhibition [36]: < 65% | inhibition [37]: < 65% | inhibition [38]: < 65% | inhibition [39]: < 65% | inhibition [40]: < 65% | inhibition [41]: < 65% | inhibition [42]: < 65% | inhibition [43]: < 65% | inhibition [44]: < 65% | inhibition [45]: < 65% | inhibition [46]: < 65% | inhibition [47]: < 65% | inhibition [48]: < 65%
